In assay [1] the target is T1, Polyunsaturated fatty acid lipoxygenase ALOX12 (Homo sapiens, UniProt P18054).
T1 sequence (P18054 whole entry): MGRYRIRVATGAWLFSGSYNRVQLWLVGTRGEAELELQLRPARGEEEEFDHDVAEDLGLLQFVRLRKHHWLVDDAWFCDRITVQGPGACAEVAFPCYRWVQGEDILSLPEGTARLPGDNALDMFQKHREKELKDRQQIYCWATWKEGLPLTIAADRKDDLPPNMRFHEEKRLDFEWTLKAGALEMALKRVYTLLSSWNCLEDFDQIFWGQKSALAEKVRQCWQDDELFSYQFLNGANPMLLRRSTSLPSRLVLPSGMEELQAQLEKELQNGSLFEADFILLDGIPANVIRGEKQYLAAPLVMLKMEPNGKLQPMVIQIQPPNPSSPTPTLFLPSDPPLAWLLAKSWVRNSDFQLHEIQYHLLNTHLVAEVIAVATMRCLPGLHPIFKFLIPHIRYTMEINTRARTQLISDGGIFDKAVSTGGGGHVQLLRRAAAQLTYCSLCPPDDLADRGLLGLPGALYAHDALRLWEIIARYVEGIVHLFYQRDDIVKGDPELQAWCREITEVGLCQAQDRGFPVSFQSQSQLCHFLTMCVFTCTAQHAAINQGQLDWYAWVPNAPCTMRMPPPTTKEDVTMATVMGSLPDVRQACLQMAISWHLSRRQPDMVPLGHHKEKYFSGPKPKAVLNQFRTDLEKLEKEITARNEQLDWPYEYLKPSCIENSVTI
In words: Inhibition of human platelet-type N-terminally His6-tagged 12-lipoxygenase assessed as conjugated diene product formation using arachidonic acid by UV-vis spectrophotometer analysis.

Assay [2] has as its target T1, Polyunsaturated fatty acid lipoxygenase ALOX12. Briefly: Inhibition of human platelet-type 12-lipoxygenase.
In assay [3] the target is T2, Polyunsaturated fatty acid lipoxygenase ALOX15 (Homo sapiens, UniProt P16050).
T2 sequence (P16050 whole entry): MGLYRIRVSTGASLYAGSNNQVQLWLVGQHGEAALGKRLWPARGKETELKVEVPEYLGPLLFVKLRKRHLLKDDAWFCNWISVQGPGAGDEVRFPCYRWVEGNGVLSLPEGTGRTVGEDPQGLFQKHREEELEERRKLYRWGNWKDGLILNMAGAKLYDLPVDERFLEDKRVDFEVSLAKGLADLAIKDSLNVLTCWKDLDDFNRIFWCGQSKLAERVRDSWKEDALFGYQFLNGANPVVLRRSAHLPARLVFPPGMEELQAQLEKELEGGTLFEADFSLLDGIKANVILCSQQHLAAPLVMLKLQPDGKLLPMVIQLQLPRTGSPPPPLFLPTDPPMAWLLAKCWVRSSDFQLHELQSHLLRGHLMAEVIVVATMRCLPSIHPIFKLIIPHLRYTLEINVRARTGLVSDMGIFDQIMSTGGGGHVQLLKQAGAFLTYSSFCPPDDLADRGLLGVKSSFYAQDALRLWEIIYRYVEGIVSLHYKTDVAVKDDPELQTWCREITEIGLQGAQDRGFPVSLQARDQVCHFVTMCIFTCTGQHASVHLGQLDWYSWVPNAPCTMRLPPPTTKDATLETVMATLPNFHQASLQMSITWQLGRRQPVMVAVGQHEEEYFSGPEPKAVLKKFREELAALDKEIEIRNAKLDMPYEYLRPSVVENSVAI

The target of assay [4] is T3, Polyunsaturated fatty acid lipoxygenase ALOX15B (Homo sapiens, UniProt O15296).
T3 sequence (O15296 whole entry): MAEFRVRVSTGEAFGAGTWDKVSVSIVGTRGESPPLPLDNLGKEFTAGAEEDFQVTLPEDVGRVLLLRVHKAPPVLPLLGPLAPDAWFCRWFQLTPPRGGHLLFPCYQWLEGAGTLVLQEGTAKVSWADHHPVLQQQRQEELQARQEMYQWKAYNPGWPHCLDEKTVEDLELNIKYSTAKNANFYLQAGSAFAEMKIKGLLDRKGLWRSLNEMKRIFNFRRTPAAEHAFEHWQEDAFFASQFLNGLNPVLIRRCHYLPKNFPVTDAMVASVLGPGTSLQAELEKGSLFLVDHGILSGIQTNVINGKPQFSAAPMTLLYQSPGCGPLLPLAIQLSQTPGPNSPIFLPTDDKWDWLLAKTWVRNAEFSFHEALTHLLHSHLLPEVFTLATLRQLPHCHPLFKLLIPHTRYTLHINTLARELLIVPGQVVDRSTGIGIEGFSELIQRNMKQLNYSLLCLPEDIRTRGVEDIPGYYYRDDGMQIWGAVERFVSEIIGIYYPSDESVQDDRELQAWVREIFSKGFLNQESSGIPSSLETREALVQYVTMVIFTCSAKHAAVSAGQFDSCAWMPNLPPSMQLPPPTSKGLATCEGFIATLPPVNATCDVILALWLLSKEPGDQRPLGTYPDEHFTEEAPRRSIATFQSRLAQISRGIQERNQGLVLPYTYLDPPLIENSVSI
In words: Inhibition of human reticulocyte N-terminally His6-tagged 15-lipoxygenase-2 assessed as conjugated diene product formation using arachidonic acid by UV-vis spectrophotometer analysis.

Assay [5] concerns the target T4, Polyunsaturated fatty acid 5-lipoxygenase (Homo sapiens, UniProt P09917).
T4 sequence (P09917 whole entry): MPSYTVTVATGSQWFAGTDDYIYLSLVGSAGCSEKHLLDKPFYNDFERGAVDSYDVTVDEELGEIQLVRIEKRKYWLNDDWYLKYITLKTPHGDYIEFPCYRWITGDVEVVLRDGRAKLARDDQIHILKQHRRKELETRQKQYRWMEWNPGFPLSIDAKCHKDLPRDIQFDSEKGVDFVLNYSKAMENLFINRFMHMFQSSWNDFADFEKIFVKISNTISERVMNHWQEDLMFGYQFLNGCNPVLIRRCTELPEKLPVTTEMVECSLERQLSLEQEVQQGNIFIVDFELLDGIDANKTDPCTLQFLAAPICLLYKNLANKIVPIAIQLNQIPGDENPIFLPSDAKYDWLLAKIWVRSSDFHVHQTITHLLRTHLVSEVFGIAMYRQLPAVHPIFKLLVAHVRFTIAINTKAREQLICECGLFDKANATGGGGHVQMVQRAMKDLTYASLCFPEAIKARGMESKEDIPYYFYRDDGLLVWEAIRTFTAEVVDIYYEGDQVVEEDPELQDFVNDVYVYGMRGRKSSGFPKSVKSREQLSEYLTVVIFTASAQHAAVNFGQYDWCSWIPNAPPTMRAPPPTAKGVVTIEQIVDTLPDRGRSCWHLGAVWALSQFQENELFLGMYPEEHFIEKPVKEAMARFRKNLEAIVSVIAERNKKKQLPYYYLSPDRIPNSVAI
In words: Inhibition of human 5-lipoxygenase assessed as conjugated diene product formation using arachidonic acid by UV-vis spectrophotometer analysis.

For assay [6], the target named is T2, Polyunsaturated fatty acid lipoxygenase ALOX15. In words: Inhibition of human reticulocyte N-terminally His6-tagged 15-lipoxygenase-1 assessed as conjugated diene product formation using arachidonic acid by UV-vis spectrophotometer analysis.
The species entered for assay [7] is Homo sapiens. In words: Selectivity ratio of IC50 for human 5-lipoxygenase to IC50 for human platelet-type N-terminally His6-tagged 12-lipoxygenase.
The species entered for assay [8] is Homo sapiens. Briefly: Selectivity ratio of IC50 for human reticulocyte N-terminally His6-tagged 15-lipoxygenase-1 to IC50 for human platelet-type N-terminally His6-tagged 12-lipoxygenase.
The species named for assay [9] is Homo sapiens. Briefly: Selectivity ratio of IC50 for human reticulocyte N-terminally His6-tagged 15-lipoxygenase-2 to IC50 for human platelet-type N-terminally His6-tagged 12-lipoxygenase.
Assay [10] has as its system Radical scavenging activity. Briefly: Antioxidant activity assessed as DPPH radical scavenging activity at 5 uM. In kind it is functional. Background: DPPH is a stable violet radical that fades when it is reduced.
Assay [11] deals with T5, Polyunsaturated fatty acid lipoxygenase ALOX12 (Homo sapiens) (UniProt P18054).
T5 sequence (whole entry): T1 sequence (P18054 whole entry)
To be noted: 100 uM.

For assay [12], the target named is T1, Polyunsaturated fatty acid lipoxygenase ALOX12. In words: cell-based.
For assay [13], the target named is T5, Polyunsaturated fatty acid lipoxygenase ALOX12 (Homo sapiens). The note with it: 10 uM.
Assay [14] has the same target. To be noted: 10 uM. This is another data set of the same source.
For assay [15] the target is unchanged. In words: Competitive inhibition of human platelet-type N-terminally His6-tagged 12-lipoxygenase assessed as 12-HPETE formation using arachidonic acid by Michaelis-Menten equation analysis.
Assay [16] shares this target. In words: Uncompetitive inhibition of human platelet-type N-terminally His6-tagged 12-lipoxygenase assessed as 12-HPETE formation using arachidonic acid by Michaelis-Menten equation analysis.

Activity calls are given as the source filed them. The calls are words filed in the database; no cut-off is given here. Bounds are passed on as bounds.

As a reminder, the IC50 is the concentration that inhibits the measured activity by half. On to `CCC(=O)NC(c1ccco1)c1cc(Cl)c2cccnc2c1OC` (configuration not stated), for which the IC50 in assay [1] is > 75 µM.
Consider `CCC(=O)NC(c1ccc(Br)o1)c1cc(Cl)c2cccnc2c1O` (configuration not stated), for which the IC50 in assay [1] was > 75 µM.
`CC(C)(c1ccc(O)c(Br)c1)c1cc(Br)c(O)c(Br)c1`: the figures for the half-inhibitory concentration (IC50) in assay [2] and in assay [3] were 5 µM and 7 µM, respectively.
`Oc1c(Cl)cc(Cl)c2cccnc12` [CHLOROXINE]: the IC50 in assay [4] turned out to be 28 µM; in assay [5], 3.6 µM; in assay [1] it was 1.9 µM; in assay [6], 2.4 µM.
On to `CCC(=O)NC(c1ccco1)c1cc(Cl)c2cccnc2c1O` (configuration not stated), for which the Ratio IC50 in the assay listed under Homo sapiens [7] was > 100; in the assay listed under Homo sapiens [8], > 50; in the assay filed under Homo sapiens [9] it was > 100. Further, the IC50 in assay [4] was > 100 µM; in assay [5], > 100 µM; in assay [6], > 50 µM.
For orientation: inhibition means the relative decrease from the control value, in per cent. On to `CCC(=O)NC(c1cccs1)c1cc([N+](=O)[O-])c2cccnc2c1O` (configuration not stated), for which the result in assay [10] was inactive. Further, the inhibition entry in assay [11] is “Active”. The IC50 in [12] was 15 µM; in assay [6], > 25 µM. Besides, the inhibition in [13] came out at 70%; in assay [14], 68.9%.
As for `CC(=O)NC(c1cccs1)c1cc(Cl)c2cccnc2c1O` (configuration not stated), the Ratio IC50 is > 100 in the assay filed under Homo sapiens [7] and 25 in the assay listed under Homo sapiens [8]. For the same molecule, the Kic in [15] was 0.7 µM. Further, the figures for the IC50 in assay [5] and in [6] were > 100 µM and > 25 µM, respectively. Further, the Kiuc in assay [16] was found to be 0.8 µM.
Consider `CC(=O)NC(c1ccco1)c1cc(Cl)c2ccc(N3CCCCC3)nc2c1O` (configuration not stated), for which the IC50 in assay [1] is > 75 µM.
Take `O=C(NC(c1ccco1)c1cc(Cl)c2cccnc2c1O)c1ccccc1` (configuration not stated): the IC50 in assay [1] was > 25 µM.
On the same count and under the same terms, as for `CC(=O)NC(c1ccco1)c1cc(Cl)c2ccccc2c1O` (configuration not stated), the figure is > 75 µM.
On the same count and under the same terms, as for `CC(=O)NC(C)c1cc(Cl)c2cccnc2c1O` (configuration not stated), the figure is > 150 µM.
Take `CCC(=O)NC(c1cccs1)c1ccc2cccnc2c1O` (configuration not stated): the Ratio IC50 in the assay filed under Homo sapiens [7] was > 29; in the assay filed under Homo sapiens [8], > 15; in the assay listed under Homo sapiens [9], > 29. Further, the IC50 is > 100 µM in assay [4], > 100 µM in assay [5] and > 50 µM in assay [6].
Consider `CC(=O)NCc1cc(Cl)c2cccnc2c1O`, for which, in assay [1], the 50% inhibitory concentration (IC50) was > 150 µM.
Consider `Oc1c(Br)c(Br)c(Br)c(Br)c1Oc1ccc(Br)cc1Br`, for which the values for the IC50 in assay [2] and in [3] were 1.8 µM and 0.7 µM, respectively.
Turning to `CC(Cc1ccc(O)c(O)c1)C(C)Cc1ccc(O)c(O)c1` (configuration not stated), the result in [10] was Active.
Take `CCC(=O)NC(c1ccc(F)cc1)c1cc(Cl)c2cccnc2c1O` (configuration not stated): the half-inhibitory concentration (IC50) in [1] was > 50 µM.
For the molecule `CC(=O)NC(c1ccco1)c1cc(Cl)c2ccc(N(C)C)nc2c1O` (configuration not stated), in assay [1], the IC50 is > 75 µM.
Take `CC(=O)NC(c1ccco1)c1cc(Cl)c2ccc(Cl)nc2c1O` (configuration not stated): the IC50 in [1] was > 75 µM.
Regarding `CCC(=O)NC(c1ccco1)c1cc(Cl)c2c(c1O)NCCC2` (configuration not stated), the IC50 in [1] came out at 3 µM.
The same measure, in the same setting: as for `Cc1ccc(C(=O)NC(c2ccco2)c2cc(Cl)c3cccnc3c2O)cc1` (configuration not stated), the figure is > 25 µM; as for `CC(=O)NC(C)c1cc(F)c2cccnc2c1O` (configuration not stated), > 75 µM; as for `CCC(=O)NC(C)c1cc(Cl)c2cccnc2c1O` (configuration not stated), > 50 µM.
